From the supplement of paper PMC10627819

Assays:
Experiment in all cases: fitness (endpoint OD595 vs no drug) (fraction); higher = more growth
S. aureus Newman = tested on: S. aureus Newman
Summary of the method: (§1)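 Plates with 384 wells were inoculated at OD595 0.01 using 30 µl of TSB, LB Lennox or CY, or 55 µl for S. pneumoniae. Incubation was at 37 °C, with OD595 measured every 30 min for 14 h. Fitness is the stationary-phase transition optical density over the robust mean of no-drug control wells, after first-reading background subtraction; it is capped at 1.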

B. subtilis 168 = tested on: B. subtilis 168
Summary of the method: as §1

S. pneumoniae D39V = tested on: S. pneumoniae D39V
Summary of the method: as §1

S. aureus DSM 20231 = tested on: S. aureus DSM 20231
Summary of the method: as §1

CCCCCCCCCC(=O)N[C@@H](Cc1c[nH]c2ccccc12)C(=O)N[C@H](CC(N)=O)C(=O)N[C@@H](CC(=O)O)C(=O)N[C@@H]1C(=O)NCC(=O)N[C@@H](CCCN)C(=O)N[C@@H](CC(=O)O)C(=O)N[C@H](C)C(=O)N[C@@H](CC(=O)O)C(=O)NCC(=O)N[C@H](CO)C(=O)N[C@@H]([C@H](C)CC(=O)O)C(=O)N[C@@H](CC(=O)c2ccccc2N)C(=O)O[C@@H]1C [Daptomycin] + CC1(C)S[C@@H]2[C@H](NC(=O)Cc3ccccc3)C(=O)N2[C@H]1C(=O)O [Penicillin G]
fitness, S. aureus Newman
Conditions | first compound 0.125 µg/mL | first compound 0.25 µg/mL | first compound 0.5 µg/mL
partner 0.0195 µg/mL | 0.926 | 0.958 | 0.925
partner 0.039 µg/mL | 0.939 | 0.942 | 0.972
partner 0.078 µg/mL | 0.961 | 0.957 | 0.915

CCCCCCCCCC(=O)N[C@@H](Cc1c[nH]c2ccccc12)C(=O)N[C@H](CC(N)=O)C(=O)N[C@@H](CC(=O)O)C(=O)N[C@@H]1C(=O)NCC(=O)N[C@@H](CCCN)C(=O)N[C@@H](CC(=O)O)C(=O)N[C@H](C)C(=O)N[C@@H](CC(=O)O)C(=O)NCC(=O)N[C@H](CO)C(=O)N[C@@H]([C@H](C)CC(=O)O)C(=O)N[C@@H](CC(=O)c2ccccc2N)C(=O)O[C@@H]1C [Daptomycin] + CC1=C(C(=O)O)N2C(=O)[C@@H](NC(=O)[C@H](N)c3ccccc3)[C@H]2SC1 [Cephalexin]
fitness
Conditions | first compound 0.125 µg/mL | first compound 0.25 µg/mL | first compound 0.5 µg/mL | first compound 1 µg/mL | first compound 2 µg/mL | first compound 4 µg/mL
B. subtilis 168, partner 0.125 µg/mL | 0.897 | 0.879 | 0.872 | – | – | –
B. subtilis 168, partner 0.25 µg/mL | 0.888 | 0.892 | 0.879 | – | – | –
B. subtilis 168, partner 0.5 µg/mL | 0.879 | 0.957 | 0.835 | – | – | –
S. aureus Newman, partner 0.25 µg/mL | 0.956 | 0.962 | 0.984 | – | – | –
S. aureus Newman, partner 0.5 µg/mL | 0.992 | ≥ 1 | 0.996 | – | – | –
S. aureus Newman, partner 1 µg/mL | 0.991 | ≥ 1 | ≥ 1 | – | – | –
S. pneumoniae D39V, partner 1 µg/mL | – | – | – | 0.452 | 0.479 | 0.449
S. pneumoniae D39V, partner 2 µg/mL | – | – | – | 0.065 | 0.0675 | 0.0521
S. pneumoniae D39V, partner 4 µg/mL | – | – | – | 0.0361 | 0.0644 | 0.0719

fitness, one replicate
Conditions | partner 0.125 µg/mL | partner 0.25 µg/mL | partner 0.5 µg/mL | partner 1 µg/mL
B. subtilis 168, first compound 0.25 µg/mL | – | – | – | 0.956
B. subtilis 168, first compound 0.5 µg/mL | – | – | – | 0.92
B. subtilis 168, first compound 1 µg/mL | – | 0.763 | 0.741 | 0.766
S. pneumoniae D39V, first compound 1 µg/mL | 0.903 | 0.898 | 0.896 | –
S. pneumoniae D39V, first compound 2 µg/mL | 0.922 | 0.857 | 0.891 | –
S. pneumoniae D39V, first compound 4 µg/mL | 0.977 | 0.878 | 0.887 | –

CCCCCCCCCC(=O)N[C@@H](Cc1c[nH]c2ccccc12)C(=O)N[C@H](CC(N)=O)C(=O)N[C@@H](CC(=O)O)C(=O)N[C@@H]1C(=O)NCC(=O)N[C@@H](CCCN)C(=O)N[C@@H](CC(=O)O)C(=O)N[C@H](C)C(=O)N[C@@H](CC(=O)O)C(=O)NCC(=O)N[C@H](CO)C(=O)N[C@@H]([C@H](C)CC(=O)O)C(=O)N[C@@H](CC(=O)c2ccccc2N)C(=O)O[C@@H]1C [Daptomycin] + CO/N=C(\C(=O)N[C@@H]1C(=O)N2C(C(=O)[O-])=C(C[N+]3(C)CCCC3)CS[C@H]12)c1csc(N)n1 [Cefepime]
fitness
Conditions | first compound 0.125 µg/mL | first compound 0.25 µg/mL | first compound 0.5 µg/mL | first compound 1 µg/mL | first compound 2 µg/mL | first compound 4 µg/mL
S. aureus DSM 20231, partner 0.125 µg/mL | – | – | 0.846 | 0.938 | 0.934 | –
S. aureus DSM 20231, partner 0.25 µg/mL | – | – | 0.88 | 0.89 | 0.887 | –
S. aureus DSM 20231, partner 0.5 µg/mL | – | – | 0.869 | 0.877 | 0.844 | –
S. aureus Newman, partner 0.125 µg/mL | 0.935 | 0.941 | 0.967 | – | – | –
S. aureus Newman, partner 0.25 µg/mL | 0.854 | 0.874 | 0.874 | – | – | –
S. aureus Newman, partner 0.5 µg/mL | 0.8 | 0.797 | 0.799 | – | – | –
S. pneumoniae D39V, partner 0.007 µg/mL | – | – | – | 0.917 | 0.942 | 0.476
S. pneumoniae D39V, partner 0.0078 µg/mL | – | – | – | ≥ 1 | ≥ 1 | 0.964
S. pneumoniae D39V, partner 0.014 µg/mL | – | – | – | 0.887 | 0.938 | 0.57
S. pneumoniae D39V, partner 0.0155 µg/mL | – | – | – | 0.982 | ≥ 1 | 0.965
S. pneumoniae D39V, partner 0.028 µg/mL | – | – | – | 0.813 | 0.82 | 0.48
S. pneumoniae D39V, partner 0.031 µg/mL | – | – | – | 0.584 | 0.606 | 0.599
